In the test the target is benzodiazepine site of the GABAA receptor. In words: Ligand binding assay of Example 6 (3H-Ro15-1788 competition, purified rat cortical membranes). The note with it: ligand binding assay of Example 6; Table 5 Ki.

A value given as a limit tells only on which side of the number the result lay.

For `CCOc1c(Cn2ccnc2-c2ncccc2F)ncn2ncnc12` [Compound 245, 8-ethoxy-7-{[2-(3-fluoropyridin-2-yl)-1H-imidazol-1-yl]methyl}[1,2,4]triazolo[1,5-c]pyrimidine], the Ki (usually the equilibrium dissociation constant of an inhibitor or competing ligand from its target) is less than 1 µM. In turn, `CCCc1c(Cn2ccnc2-c2ncccc2F)ncn2nc(Cl)nc12` [Compound 256, 2-chloro-7-{[2-(3-fluoropyridin-2-yl)-1H-imidazol-1-yl]methyl}-8-propyl[1,2,4]triazolo[1,5-c]pyrimidine] returned an inhibition constant Ki of less than 1 µM. The result for `Cc1nc2c(CCOCc3ccccc3)c(Cn3ccnc3-c3ncccc3F)ncn2n1` [Compound 227, 8-(2-Benzyloxy-ethyl)-7-[2-(3-fluoro-pyridin-2-yl)-imidazol-1-ylmethyl]-2-methyl-[1,2,4]triazolo[1,5-c]pyrimidine] reads less than 1 µM. In turn, `C/C=C/c1c(Cn2ccnc2-c2ncccc2F)ncn2nc(C)nc12` [Compound 224, 7-[2-(3-Fluoro-pyridin-2-yl)-imidazol-1-ylmethyl]-2-methyl-8-propenyl-[1,2,4]triazolo[1,5-c]pyrimidine] gave an inhibitory constant (Ki) of less than 1 µM. `CCCc1c(Cn2ccnc2-c2ncccc2F)ncn2nc(COCC)nc12` [Compound 261, 2-(ethoxymethyl)-7-{[2-(3-fluoropyridin-2-yl)-1H-imidazol-1-yl]methyl}-8-propyl[1,2,4]triazolo[1,5-c]pyrimidine]: the inhibitory constant (Ki) is less than 1 µM. With `Cc1nc2c(CCO)c(Cn3ccnc3-c3ncccc3F)ncn2n1` [Compound 231, 2-{7-[2-(3-Fluoro-pyridin-2-yl)-imidazol-1-ylmethyl]-2-methyl-[1,2,4]triazolo[1,5-c]pyrimidin-8-yl}-ethanol] the figure was less than 1 µM; with `CCCc1c(Cn2ccnc2-c2ncccc2F)ncn2nc(C#N)nc12` [Compound 240, 7-[2-(3-Fluoro-pyridin-2-yl)-imidazol-1-ylmethyl]-8-propyl-[1,2,4]triazolo[1,5-c]pyrimidine-2-carbonitrile], less than 1 µM.

In the case of `CCCc1c(Cn2ccnc2-c2ncccc2F)ncn2nc(OCC)nc12` [Compound 247, 2-ethoxy-7-{[2-(3-fluoropyridin-2-yl)-1H-imidazol-1-yl]methyl}-8-propyl[1,2,4]triazolo[1,5-c]pyrimidine], the Ki is less than 1 µM. For the compound `CCCc1c(Cn2ccnc2-c2ncccc2F)ncn2nc(-c3nccs3)nc12` [Compound 258, 7-{[2-(3-fluoropyridin-2-yl)-1H-imidazol-1-yl]methyl}-8-propyl-2-(1,3-thiazol-2-yl)[1,2,4]triazolo[1,5-c]pyrimidine], the Ki was less than 1 µM. `CCc1nc2c(CC)c(Cn3ccnc3-c3cc(F)ccc3C)ncn2n1` [Compound 219, 2,8-Diethyl-7-[2-(5-fluoro-2-methyl-phenyl)-imidazol-1-ylmethyl]-[1,2,4]triazolo[1,5-c]pyrimidine] had an inhibitory constant (Ki) of less than 1 µM. With `CCCc1c(Cn2ccnc2-c2cccc(C#N)n2)ncn2nc(C)nc12` [Compound 262, 6-{1-[(2-methyl-8-propyl[1,2,4]triazolo[1,5-c]pyrimidin-7-yl]methyl]-1H-imidazol-2-yl}pyridine-2-carbonitrile], the inhibitory constant (Ki) was less than 1 µM. With `COCc1c(Cn2ccnc2-c2ncccc2F)ncn2nc(C)nc12` [Compound 220, 7-[2-(3-Fluoro-pyridin-2-yl)-imidazol-1-ylmethyl]-8-methoxymethyl-2-methyl-[1,2,4]triazolo[1,5-c]pyrimidine] the figure was less than 1 µM; with `CCCc1c(Cn2ccnc2-c2ncccc2F)ncn2nc(CO)nc12` [Compound 223, {7-[2-(3-Fluoro-pyridin-2-yl)-imidazol-1-ylmethyl]-8-propyl-[1,2,4]triazolo[1,5-c]pyrimidin-2-yl}-methanol], less than 1 µM. As to `CCCc1c(Cn2ccnc2-c2ncccc2F)ncn2nc(COCC(F)(F)F)nc12` [Compound 255, 7-{[2-(3-fluoropyridin-2-yl)-1H-imidazol-1-yl]methyl}-8-propyl-2-[(2,2,2-trifluoroethoxy)methyl][1,2,4]triazolo[1,5-c]pyrimidine], the inhibition constant (Ki) is less than 1 µM.

The values above are taken from patent publication US7271170B2, “Imidazo-pyrimidines and triazolo-pyrimidines: benzodiazepine receptor ligands” (Neurogen Corporation, priority 2003, dated 2007).
